Entries after “also recorded” stand apart in the source; their conditions may differ. Read-outs that look alike come from different tables or passages of the source.
Columns and labels:
[1] = tested on: Lzm-S-induced carotid artery vasodilation; experiment: Prevention of Lzm-S-induced vasodilation by pretreatment agents in the carotid artery ring preparation; design: species or system canine; conditions: for contraction after Lzm-S relative to the value post-L-NMMA treatment: L-NMMA 10^−3 mol/L treated group (n=8); for blockade of Lzm-S-induced vasodilation: comparison of hydroxyl radical scavengers with peroxidase
[2] = tested on: phenylephrine contracted canine carotid artery ring preparation; experiment: Contraction force and vasorelaxation in phenylephrine contracted canine carotid artery ring preparation; conditions: for force after HEPES buffer was added: ethanol 2×10^−7 mol/L control group, HEPES buffer instead of Lzm-S; for contraction after Lzm-S relative to the value pre-Lzm-S treatment: non-L-NMMA treated group (n=12), human Lzm-S 6.7×10^−7 mol/L; for contraction after Lzm-S relative to the pre-Lzm-S contraction: non-indomethacin treated group (n=4)
[3] = pretreatment with the agent, human Lzm-S 6.7×10^−7 mol/L, phenylephrine contracted ring

Molecule: Nc1ccncc1 [4-aminopyridine]
- inhibition of Lzm-S-induced vasodilation (words) [1, 3]: none of these inhibitors prevented Lzm-S's vasodilatory response

Molecule: O=C(O)CCC/C=C\C/C=C\C/C=C\C/C=C\CCCCCO [20-hydroxyeicosatetraenoic acid]
- inhibition of Lzm-S-induced vasodilation (words) [1, 3]: none of these inhibitors prevented Lzm-S's vasodilatory response

Molecule: CCN(CC)C(=S)S [DECTA, diethyldithiocarbamic acid]
- inhibition of Lzm-S-induced vasodilation (words) [1, 3]: neither DECTA (10^−2 mol/L), deferoxamine methanesulfonate salt (10^−2 mol/L), nor the reducing agents N-acetylcysteine (10^−3 mol/L), ascorbic acid (10^−4 mol/L), and reduced-glutathione (10^−3 mol/L) were found to inhibit Lzm-S-induced vasodilation

Molecule: OO [H2O2, hydrogen peroxide]
- effect of H2O2 on force ([2]; 10^−4 mol/L): progressive vasorelaxation over time
- effect of H2O2 on precontracted force ([2]; 10^−5 mol/L): minimal effect
- effect of H2O2 on force ([2]; higher concentrations, 10^−3 to 10^−1 mol/L): an initial increase in force that was followed by vasorelaxation; also recorded: vasoconstriction that was rapidly followed by vasodilation
- effect of H2O2 on force ([2]; lower concentrations, FIG. 8): vasorelaxation was produced

Molecule: [Cl-].[K+] [KCl]
- inhibition of Lzm-S-induced vasodilation (words) [1, 3]: none of these inhibitors prevented Lzm-S's vasodilatory response

Molecule: CNC(=N)NCCC[C@H](N)C(=O)O [L-NMMA, N^G-monomethyl-L-arginine]
- contraction with L-NMMA treatment ([2]; L-NMMA 10^−3 mol/L added after phenylephrine plateau, before Lzm-S): 8.1±3.5 grams
- contraction after Lzm-S relative to the value post-L-NMMA treatment ([1]; human Lzm-S 6.7×10^−7 mol/L, 5 minutes): 37±22%
- contraction after Lzm-S relative to the value post-L-NMMA treatment ([1]; human Lzm-S 6.7×10^−7 mol/L, 15 minutes): 13±16%
- contraction after Lzm-S relative to the value post-L-NMMA treatment ([1]; human Lzm-S 6.7×10^−7 mol/L, 30 minutes, minus = below resting force): −0.3±1%
- inhibition of Lzm-S-induced vasodilation (words) [1, 3]: did not inhibit lysozyme induced vasodilation; also recorded: did not Prevent Vasodilation

Molecule: O=C1C(Nc2ccccc2)=CC(=O)c2ncccc21 [LY 83583, 6-anilino-5,8-quinolinequinone]
- inhibition of Lzm-S-induced vasodilation (words) [1, 3]: prevented lysozyme induced vasdodilation; also recorded: found to inhibit Lzm-S's effect

Molecule: CC(=O)N[C@@H](CS)C(=O)O [N-acetylcysteine]
- inhibition of Lzm-S-induced vasodilation (words) [1, 3]: neither DECTA (10^−2 mol/L), deferoxamine methanesulfonate salt (10^−2 mol/L), nor the reducing agents N-acetylcysteine (10^−3 mol/L), ascorbic acid (10^−4 mol/L), and reduced-glutathione (10^−3 mol/L) were found to inhibit Lzm-S-induced vasodilation

Molecule: O=c1onc2cnc3ccccc3n12 [ODQ, 1H-[1,2,4]oxadiazolo[4,3-a]quinoxalin-1-one]
- inhibition of Lzm-S-induced vasodilation (words) [1, 3]: prevented lysozyme induced vasdodilation; also recorded: found to inhibit Lzm-S's effect

Molecule: Nc1ncnc2c1ncn2C1CCCO1 (stereo not drawn) [SQ 22, 536]
- inhibition of Lzm-S-induced vasodilation (words) [1, 3]: none of these inhibitors prevented Lzm-S's vasodilatory response

Molecule: O=C1O[C@H]([C@@H](O)CO)C(O)=C1O [ascorbic acid]
- inhibition of Lzm-S-induced vasodilation (words) [1, 3]: neither DECTA (10^−2 mol/L), deferoxamine methanesulfonate salt (10^−2 mol/L), nor the reducing agents N-acetylcysteine (10^−3 mol/L), ascorbic acid (10^−4 mol/L), and reduced-glutathione (10^−3 mol/L) were found to inhibit Lzm-S-induced vasodilation

Molecule: CN1[C@@H]2CC[C@H]1C[C@@H](OC(=O)C(CO)c1ccccc1)C2 (stereo partly drawn) [atropine]
- inhibition of Lzm-S-induced vasodilation (words) [1, 3]: none of these inhibitors prevented Lzm-S's vasodilatory response

Molecule: CC(=O)N[C@H]1[C@H](O[C@H]2[C@H](O)[C@@H](NC(C)=O)C(O)O[C@@H]2CO)O[C@H](CO)[C@@H](O)[C@@H]1O (stereo partly drawn) [chitobiose, N,N′-diacetylchitobiose]
- inhibition of Lzm-S-induced vasodilation (words) [1, 3]: did not block Lzm-S's vasodilatory response

Molecule: CC(=O)N[C@H]1[C@H](O[C@H]2[C@H](O)[C@@H](NC(C)=O)C(O)O[C@@H]2CO)O[C@H](CO)[C@@H](O[C@@H]2O[C@H](CO)[C@@H](O)[C@H](O)[C@H]2NC(C)=O)[C@@H]1O (stereo partly drawn) [chitotriose, N,N′,N″-triacetylchitotriose]
- inhibition of Lzm-S-induced vasodilation (words) [1, 3]: did not block Lzm-S's vasodilatory response

Molecule: CN(C)CCOC(c1ccccc1)c1ccccc1.Cl [dipheniramine hydrochloride]
- inhibition of Lzm-S-induced vasodilation (words) [1, 3]: none of these inhibitors prevented Lzm-S's vasodilatory response

Molecule: CCO [ethanol]
- force after HEPES buffer was added ([2]; 5 minutes): 10.7±2.8 grams
- force after HEPES buffer was added ([2]; 15 minutes): 11±2.8 grams
- force after HEPES buffer was added ([2]; 30 minutes): 11±2.6 grams
- contraction with ethanol as compared with the phenylephrine contraction alone ([2]; ethanol treated control group, ethanol highest concentration 2×10^−7 mol/L, before HEPES buffer): 10±2.6 grams
- initial effect of ethanol on force ([2]; higher concentrations of ethanol, before Lzm-S): initial vasoconstriction
- inhibition of Lzm-S-induced vasodilation (words) [1, 3]: inhibited the effect of lysozyme
- inhibition of Lzm-S-induced vasodilation (words) ([1]; pretreatment with the agent, human Lzm-S 6.7×10^−7 mol/L, phenylephrine contracted ring, listed as Ethanol): markedly effective

Molecule: Oc1ccc(O)cc1 [hydroquinone]
- blockade of Lzm-S-induced vasodilation [1]: 60%
- inhibition of Lzm-S-induced vasodilation (words) [1, 3]: inhibited the vasodilatory effect of lysozyme
- inhibition of Lzm-S-induced vasodilation (words) ([1]; pretreatment with the agent, human Lzm-S 6.7×10^−7 mol/L, phenylephrine contracted ring, listed as hydroxyquinone): inhibitory effect

Molecule: OC[C@@H](O)[C@@H](O)[C@H](O)[C@H](O)CO [mannitol]
- blockade of Lzm-S-induced vasodilation [1]: 60%
- inhibition of Lzm-S-induced vasodilation (words) [1, 3]: inhibited the vasodilatory effect of lysozyme; also recorded: inhibitory effect

Molecule: CN(C)c1ccc2nc3ccc(=[N+](C)C)cc-3sc2c1 [methylene blue]
- inhibition of Lzm-S-induced vasodilation (words) [1, 3]: inhibited the effect of lysozyme; also recorded: prevented lysozyme induced vasdodilation; also recorded: found to inhibit Lzm-S's effect

Molecule: CNC[C@H](O)c1cccc(O)c1 [phenylephrine]
- phenylephrine response ([2]; endothelial denuded preparation): 7.1±0.5 grams
- phenylephrine response ([2]; endothelial intact preparation): 6.7±0.7 grams
- phenylephrine contraction alone ([2]; ethanol treated control group, baseline before ethanol): 8.2±2.6 grams
- mean increase in contraction from resting force with phenylephrine ([2]; indomethacin treated group): 7.5±1.4 grams
- mean increase in force from resting tension with phenylephrine ([2]; non-indomethacin time control group): 6.9±2.7 grams
- mean increase in resting force caused by phenylephrine ([2]; phenylephrine 10^−5 mol/L, L-NMMA treated group): 6.2±2.4 grams
- mean increase in contraction from resting force caused by phenylephrine ([2]; phenylephrine 10^−5 mol/L, non-L-NMMA treated group): 7.1±2.1 grams

Molecule: CC(C)NCC(O)COc1cccc2ccccc12 (stereo not drawn) [propranolol]
- inhibition of Lzm-S-induced vasodilation (words) [1, 3]: none of these inhibitors prevented Lzm-S's vasodilatory response

Molecule: N[C@@H](CCC(=O)N[C@@H](CS)C(=O)NCC(=O)O)C(=O)O [reduced-glutathione, reduced glutathione]
- inhibition of Lzm-S-induced vasodilation (words) [1, 3]: neither DECTA (10^−2 mol/L), deferoxamine methanesulfonate salt (10^−2 mol/L), nor the reducing agents N-acetylcysteine (10^−3 mol/L), ascorbic acid (10^−4 mol/L), and reduced-glutathione (10^−3 mol/L) were found to inhibit Lzm-S-induced vasodilation

Molecule: CC[N+](CC)(CC)CC [tetraethylammonium]
- inhibition of Lzm-S-induced vasodilation (words) [1]: none of these inhibitors prevented Lzm-S's vasodilatory response

Molecule: charybdotoxin
- inhibition of Lzm-S-induced vasodilation (words) [1, 3]: none of these inhibitors prevented Lzm-S's vasodilatory response

Molecule: deferoxamine methanesulfonate salt
- inhibition of Lzm-S-induced vasodilation (words) [1, 3]: neither DECTA (10^−2 mol/L), deferoxamine methanesulfonate salt (10^−2 mol/L), nor the reducing agents N-acetylcysteine (10^−3 mol/L), ascorbic acid (10^−4 mol/L), and reduced-glutathione (10^−3 mol/L) were found to inhibit Lzm-S-induced vasodilation

Molecule: guanosine 3′,5′-cyclic monophosphorothioate, β-phenyl-1,N^2-etheno-8-bromo-Rp-isomer, sodium salt [PKG inhibitor]
- inhibition of Lzm-S-induced vasodilation (words) ([1]; pretreatment with the agent, human Lzm-S 6.7×10^−7 mol/L, phenylephrine contracted ring, listed as protein kinase G inhibitor, sodium salt): prevented lysozyme induced vasdodilation
- inhibition of Lzm-S-induced vasodilation (words) ([1]; pretreatment with the agent, human Lzm-S 6.7×10^−7 mol/L, phenylephrine contracted ring, sodium salt): found to inhibit Lzm-S's effect

Molecule: iberiotoxin: used for inhibition of potassium channels (QFTDVDCSVSKECWSVCKDLFGVDRGKCMGKKCRCYQ; Iberiotoxin; UniProt P24663 1-37, looked up)
- inhibition of Lzm-S-induced vasodilation (words) [1, 3]: none of these inhibitors prevented Lzm-S's vasodilatory response

B1: human Lzm-S: Human lysozyme purchased from EMD Biosciences; used in all experiments after the initial ones (protein, UniProt P61626 19-148, looked up)
Lysozyme C: KVFERCELARTLKRLGMDGYRGISLANWMCLAKWESGYNTRATNYNAGDRSTDYGIFQINSRYWCNDGKTPGAVNACHLSCSALLQDNIADAVACAKRVVRDPQGIRAWVAWRNRCQNRDVRQYVQGCGV
- vasorelaxation in the carotid artery preparation (mean values) ([2]; FIG. 2 mean values): significant vasorelaxation
- contraction after Lzm-S, % of the phenylephrine plateau ([2]; endothelium denuded preparation (n=4), 5 minutes): 79±18%
- contraction after Lzm-S, % of the phenylephrine plateau ([2]; endothelium denuded preparation (n=4), 15 minutes): 58±21%
- contraction after Lzm-S, % of the phenylephrine plateau ([2]; endothelium denuded preparation (n=4), 30 minutes): 54±20%
- contraction after Lzm-S, % of the phenylephrine plateau ([2]; endothelium intact preparation (n=4), 5 minutes): 64±25%
- contraction after Lzm-S, % of the phenylephrine plateau ([2]; endothelium intact preparation (n=4), 15 minutes): 53±33%
- contraction after Lzm-S, % of the phenylephrine plateau ([2]; endothelium intact preparation (n=4), 30 minutes): 76±21%
- constriction after lysozyme relative to the phenylephrine value ([2]; example traces FIG. 1, phenylephrine constricted carotid ring): about 40%
- vasodilatory effect ([2]; human Lzm-S 3.3×10^−7 mol/L): minimal vasodilatory effect
- reduction in contraction ([2]; human Lzm-S higher concentration (6.7×10^−7 mol/L)): nearly eliminated the increase in force induced by phenylephrine
- contraction after Lzm-S relative to the value pre-Lzm-S treatment ([2]; 5 minutes): 23±24%
- contraction after Lzm-S relative to the value pre-Lzm-S treatment ([2]; 15 minutes): 8±27%
- contraction after Lzm-S relative to the value pre-Lzm-S treatment ([2]; 30 minutes): 2±34%
- contraction after Lzm-S relative to the pre-Lzm-S contraction ([2]; 5 minutes): 71±16%
- contraction after Lzm-S relative to the pre-Lzm-S contraction ([2]; 15 minutes): 45±19%
- contraction after Lzm-S relative to the pre-Lzm-S contraction ([2]; 30 minutes): 19±15%

Reference: patent US20110014174A1, “Lysozyme, A Novel Vasodilator of Sepsis that can be inhibited by a Peroxidase and Hydroxyl Radical Scavengers” (UNIVERSITY OF MANITOBA, priority 2007, published 2011)
